Reference: patent US4195022A, “4-Desacetoxy-4α-hydroxyvinblastine and related compounds” (Eli Lilly and Company, priority 1978, dated 1980)
Structures can show the parent of a compound that is named as a salt.

How the values were obtained:
[1] = test system: Gardner lymphosarcoma (GLS); test: anti-tumor activity against transplanted Gardner lymphosarcoma (GLS) in mice; format: in vivo; conditions: intraperitoneal
Description: (§1) The compounds of this invention, as represented by Formula II above, are anti-tumor agents. […] For this determination, a protocol was used which involved the administration of the drug by the intraperitoneal route at a given dose level for 7-10 days after innoculation with the tumor or alternatively, on the first, fifth, and ninth days after innoculation.
(§2) The following table--Table 1--give the results of several experiments in which transplanted tumors in mice were treated successfully with a compound of this invention.
(§3) In the table, column 1 gives the name of the compound; column 2, the transplanted tumor; column 3, the dose level or dose level range and the number of days the dosage was administered; and column 4, the percent inhibition of tumor growth or percent prolongation of survival time, e.g., B16. (GLS is an abbreviation for Gardner lymphosarcoma; CA755 is an adenocarcinoma; and B16 is a melanoma.).

[2] = test system: Chinese hamster ovary cells; test: mitotic inhibition in Chinese hamster ovary cells; format: cell-based
Text: The compounds of this invention are mitotic inhibitors in Chinese hamster ovary cells.

[3] = test system: B16 melanoma; test: anti-tumor activity against transplanted B16 melanoma in mice (prolongation of survival time); format: in vivo; conditions: B16, intraperitoneal; for toxic: 9.0 mg./kg. × 3 days
Description: as §1, §2, §3

[4] = test system: CA755 adenocarcinoma; test: anti-tumor activity against transplanted adenocarcinoma 755 (CA755) in mice; format: in vivo; conditions: 755, intraperitoneal, 3.0 mg./kg. × 10 days
Description: as §1, §2, §3

[5] = background statement on known alkaloids; result in words; cited from earlier work

Compound	Percent Inhibition of tumor growth ([1]; 1.5 mg./kg. × 10 days, day 7) [%]	Percent Inhibition of tumor growth ([1]; 1.5 mg./kg. × 10 days, day 11) [%]	Percent Inhibition of tumor growth ([1]; 3.0 mg./kg. × 10 days, day 7) [%]	Percent Inhibition of tumor growth ([1]; 3.0 mg./kg. × 10 days, day 11) [%]	toxic ([1]; 6.0 mg./kg. × 10 days)	Percent Inhibition of tumor growth ([1]; 6.0 mg./kg. × 10 days, day 7) [%]	minimal effective concentration ([2]; Cricetulus griseus, read-out: mitotic inhibition, activity as low as) [µg/mL]	mitotic inhibition compared with vinblastine sulfate or 4-desacetylvinblastine ([2]; result in words)	Percent Prolongation of Survival Time ([3]; 3.0 mg./kg. × 3 days) [%]	Percent Prolongation of Survival Time ([3]; 6.0 mg./kg. × 3 days) [%]	toxic [3]	Percent Inhibition of tumor growth [4] [%]	anti-cancer activity [5]
CC[C@]1(O)C[C@@H]2CN(CCc3c([nH]c4ccccc34)[C@@](C(=O)OC)(c3cc4c(cc3OC)N(C=O)[C@H]3[C@@](O)(C(=O)OC)[C@@H](O)[C@]5(CC)C=CCN6CC[C@]43[C@@H]65)C2)C1 [4-Desacetoxy-4α-hydroxy-vincristine sulfate]	36	29	100	100	toxic	100	–	–	–	–	–	–	–
CC[C@]1(O)C[C@@H]2CN(CCc3c([nH]c4ccccc34)[C@@](C(=O)OC)(c3cc4c(cc3OC)N(C)[C@H]3[C@@](O)(C(=O)OC)[C@@H](O)[C@]5(CC)C=CCN6CC[C@]43[C@@H]65)C2)C1 [4-Desacetoxy-4α-hydroxy-vinblastine, 4-Desacetoxy-4α-hydroxyvinblastine]	35	25	91	78	toxic	100	0.01	roughly corresponding to that seen with either vinblastine sulfate or with 4-desacetylvinblastine	65	90	toxic	38	–
leurosine N-oxide [pleurosine]	–	–	–	–	–	–	–	–	–	–	–	–	loss of anti-cancer activity
CCC(=O)C[C@@H]1CN(C=O)CCc2c([nH]c3ccccc23)[C@@](C(=O)OC)(c2cc3c(cc2OC)N(C)[C@H]2[C@](O)(C(=O)OC)[C@H](OC(C)=O)[C@]4(CC)C=CCN5CC[C@]32[C@@H]54)C1 [vinamidine]	–	–	–	–	–	–	–	–	–	–	–	–	chemotherapeutically-inactive
CC[C@]1(O)C[C@@H]2CN(CCc3c([nH]c4ccccc34)[C@@](C(=O)OC)(c3cc4c(cc3OC)N(C)[C@H]3[C@@](O)(C(=O)NN)[C@@H](O)[C@]5(CC)C=CCN6CC[C@]43[C@@H]65)C2)C1 [4-Desacetoxy-4α-hydroxyvinblastine C-3 carboxhydrazide]	97	98	100	100	toxic	–	–	–	67	121	toxic	–	–
